From article PMC5641919, “Structural basis for antibacterial peptide self‐immunity by the bacterial ABC transporter McjD” (The EMBO Journal, 2017) come the findings set out here.

This assay concerns the target T1, McjD (Escherichia coli, UniProt Q9X2W0).
T1 construct: reconstituted in E. coli polar lipid proteoliposomes for transport; plasmid-encoded mcjABCD operon
The experiment in a line: ATP-dependent Hoechst fluorescence uptake in proteoliposomes. Conditions: 0.1 μM Hoechst, 50 mM Tris pH 8, 50 mM KCl, E. coli polar lipids. The assay is classed as biochemical.

T1 sequence (Q9X2W0 whole entry): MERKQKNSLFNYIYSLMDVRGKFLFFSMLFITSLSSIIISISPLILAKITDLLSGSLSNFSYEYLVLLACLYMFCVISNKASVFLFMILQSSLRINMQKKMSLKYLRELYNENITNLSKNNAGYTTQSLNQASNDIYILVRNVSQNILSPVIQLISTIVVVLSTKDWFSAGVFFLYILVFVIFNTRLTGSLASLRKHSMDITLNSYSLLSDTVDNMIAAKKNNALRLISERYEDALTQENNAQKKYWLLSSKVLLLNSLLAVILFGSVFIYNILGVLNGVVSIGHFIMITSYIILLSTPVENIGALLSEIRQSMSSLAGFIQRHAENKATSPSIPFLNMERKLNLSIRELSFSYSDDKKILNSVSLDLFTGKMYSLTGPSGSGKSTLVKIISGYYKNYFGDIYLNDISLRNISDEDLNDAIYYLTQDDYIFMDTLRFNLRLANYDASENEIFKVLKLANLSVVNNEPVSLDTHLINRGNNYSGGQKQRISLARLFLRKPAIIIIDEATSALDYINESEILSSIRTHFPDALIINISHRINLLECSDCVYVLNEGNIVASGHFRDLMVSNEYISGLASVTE

Turning to `CCOc1ccc(-c2nc3ccc(-c4nc5ccc(N6CCN(C)CC6)cc5[nH]4)cc3[nH]2)cc1` [Hoechst 33342], the “ATP-dependent Hoechst fluorescence uptake in proteoliposomes” value is “McjD mediates the ATP‐dependent uptake of Hoechst in proteoliposomes (black line)”.
